How the values were obtained:
in vivo [1] = settings: Balb nu/nu, mouse, iv, 10 mg/kg
in vivo [2] = settings: Balb nu/nu, mouse, iv, 10 mg/kg; remark: listed apart in the source
in vivo [3] = settings: Balb nu/nu, mouse, iv, 10 mg/kg; remark: listed apart in the source
in vivo [4] = settings: Balb nu/nu, mouse, plasma, iv, 10 mg/kg

Row | half-life (in vivo [1]) | Vd (in vivo [2]) | clearance (in vivo [3]) | AUC(0-inf) (in vivo [4]) | SMILES
1 | 5.46 h | 4.94 L/kg | 29.4 mL/min/kg | 7.6 µM·h | CN(C)c1ccc(Oc2cc(O)cc(O)c2-c2cc(C(=O)NC3CCN(C4CCC5(CC4)OCCO5)CC3)no2)cc1
2 | 5.55 h | 19.7 L/kg | 62.3 mL/min/kg | 5.92 µM·h | CN1CCC(NC(=O)c2cc(-c3c(O)cc(O)cc3Oc3ccc(N(C)C)cc3)on2)CC1
3 | 5.44 h | 18.4 L/kg | 64.8 mL/min/kg | 4.8 µM·h | CC(C)Nc1ccc(Oc2cc(O)cc(O)c2-c2cc(C(=O)NC3CCN(C)CC3)no2)cc1
